Reference: patent EP4656642A1, “ESTROGEN RECEPTOR PROTEOLYSIS TARGETING CHIMERA COMPOUND AND USE THEREOF” (GAN & LEE PHARM CO., LTD, priority 2023, dated 2024)

Experiments:
Format in all cases: cell-based
MCF-7 cells = test: Inhibition of cell proliferation of MCF-7 cells (CCK-8, 9 days); conditions: treated for 9 days, CCK-8 kit (Table 6)
Method in brief: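 MCF-7 cells seeded at 800 cells/well in DMEM with 10% FBS, exposed to a range of compound concentrations for 9 days at 37°C, 5% CO2. Viability read by CCK-8; IC50 derived for proliferation inhibition.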

ERα [1] = target: T1, ERα (Homo sapiens, UniProt P03372); test: Degradation of ERα in T-47D cells (immunoblotting, 4 h); set-up: host or cells: T-47D
T1 sequence (P03372 1-595): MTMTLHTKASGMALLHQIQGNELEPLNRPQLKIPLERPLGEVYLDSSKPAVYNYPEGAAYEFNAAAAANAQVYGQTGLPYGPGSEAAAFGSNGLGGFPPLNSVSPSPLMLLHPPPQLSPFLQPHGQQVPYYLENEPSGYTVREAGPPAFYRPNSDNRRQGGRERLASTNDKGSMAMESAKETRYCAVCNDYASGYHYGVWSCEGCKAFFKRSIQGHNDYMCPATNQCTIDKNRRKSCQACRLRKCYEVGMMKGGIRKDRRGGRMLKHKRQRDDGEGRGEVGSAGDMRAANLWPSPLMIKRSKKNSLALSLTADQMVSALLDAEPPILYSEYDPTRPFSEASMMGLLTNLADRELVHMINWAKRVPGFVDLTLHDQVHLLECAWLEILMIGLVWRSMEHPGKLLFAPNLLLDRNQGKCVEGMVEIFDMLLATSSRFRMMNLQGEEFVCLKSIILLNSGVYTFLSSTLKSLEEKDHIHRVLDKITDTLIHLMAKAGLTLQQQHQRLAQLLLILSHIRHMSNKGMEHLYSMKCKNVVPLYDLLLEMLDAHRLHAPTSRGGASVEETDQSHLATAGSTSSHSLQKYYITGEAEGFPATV
Method in brief: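 T-47D cells were treated with compound (final 0.15-1000 nM, DMSO) for 4 h at 37°C, 5% CO2. Cells were lysed in RIPA buffer with protease inhibitor, and ERα protein in the cleared lysate was measured by immunoblotting.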

ERα [2] = target: T1, ERα; test: Degradation of ERα in MCF-7 cells (immunoblotting, 4 h)
Method in brief: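 MCF-7 cells treated 4 h at 37°C with compounds at 0.15-1000nM final. ERα in lysates measured by immunoblot, with band grayscale normalized to an internal reference protein. Degradation rate calculated against DMSO-treated control.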

Structure (SMILES)	IC50 (MCF-7 cells) [nM]	Degradation rate (%) of ERα in T-47D cells (ERα [1]; 1nM compound) [%]	Degradation rate (%) of ERα in T-47D cells (ERα [1]; 10nM compound) [%]	Degradation rate (%) of ERα in MCF-7 cells (ERα [2]; 1nM compound) [%]	Degradation rate (%) of ERα in MCF-7 cells (ERα [2]; 10nM compound) [%]
O=C1CCC(N2Cc3c(ccc4c3OCC43CCN(C4CC5(CCC6(CCN(C7CCN(c8ccc([C@@H]9c%10ccc(O)cc%10CC[C@@H]9c9ccccc9)cc8)CC7)CC6)CC5)C4)CC3)C2=O)C(=O)N1 (some centres unmarked) [K15]	196	18	35	16	42
CC1CC(N2CCC3(CC2)COc2c3ccc3c2CN(C2CCC(=O)NC2=O)C3=O)CCN1C1CC2(CCN(c3ccc(C4c5ccc(O)cc5CCC4c4ccccc4)cc3)CC2)C1 (centres unmarked) [K18]	12.6	42	79	43	80
CC1(C)CC(N2CCC3(CC2)COc2c3ccc3c2CN(C2CCC(=O)NC2=O)C3=O)CCN1C(=O)C1CCN(c2ccc([C@@H]3c4ccc(O)cc4CC[C@@H]3c3ccccc3)cc2)CC1 (some centres unmarked) [K28]	8.18	62	86	66	86
CN(C)C(=O)[C@@H]1CC(N2CCC3(CC2)COc2c3ccc3c2CN(C2CCC(=O)NC2=O)C3=O)CCN1C(=O)C1CCN(c2ccc([C@@H]3c4ccc(O)cc4CC[C@@H]3c3ccccc3)cc2)CC1 (some centres unmarked) [K29]	19.5	46	79	43	66
O=C1CCC(N2Cc3c(ccc4c3OCC43CCN(C4CCN(C(=O)C5CCN(c6ccc(C7c8ccc(O)cc8CCC7c7ccccc7)cc6)CC5)C(C(=O)N5CCCC5)C4)CC3)C2=O)C(=O)N1 (centres unmarked) [K30]	7.34	63	73	48	55
O=C1CCC(N2Cc3c(ccc4c3OCC43CCN(C4CCN(C(=O)C5CCN(c6ccc(C7c8ccc(O)cc8CCC7c7ccccc7)cc6)CC5)C(C(=O)N5CCCCC5)C4)CC3)C2=O)C(=O)N1 (centres unmarked) [K31]	1.53	73	79	61	65
CN(C)C(=O)[C@H]1CC(N2CCC3(CC2)COc2c3ccc3c2CN(C2CCC(=O)NC2=O)C3=O)CCN1C1CC2(CCN(c3ccc([C@@H]4c5ccc(O)cc5CC[C@@H]4c4ccccc4)cc3)CC2)C1 (some centres unmarked) [K32]	0.779	67	90	66	88
O=C1CCC(N2Cc3c(ccc4c3OCC43CCN(C(=O)C4CN(CC5CCN(c6ccc([C@@H]7c8ccc(O)cc8CC[C@@H]7c7ccccc7)cc6)CC5)C4)CC3)C2=O)C(=O)N1 (some centres unmarked) [K33]	17.5	58	70	57	62
O=C1CCC(N2Cc3c(ccc4c3OCC43CCN(C(=O)C4CCN(CC5CCN(c6ccc([C@@H]7c8ccc(O)cc8CC[C@@H]7c7ccccc7)cc6)CC5)CC4)CC3)C2=O)C(=O)N1 (some centres unmarked) [K34]	10.5	76	86	75	76
N#CC1(C(=O)N2CCC(N3CCC4(CC3)COc3c4ccc4c3CN(C3CCC(=O)NC3=O)C4=O)CC2)CCN(c2ccc([C@@H]3c4ccc(O)cc4CC[C@@H]3c3ccccc3)cc2)CC1 (some centres unmarked) [K35]	32.8	60	72	46	64
O=C1CCC(N2Cc3c(ccc4c3OCC43CCN(C(=O)C4CCN(C(=O)C5CCN(c6ccc([C@@H]7c8ccc(O)cc8CC[C@@H]7c7ccccc7)cc6)CC5)CC4)CC3)C2=O)C(=O)N1 (some centres unmarked) [K36]	15.2	54	76	20	61

Results, then the compound that gave them:

IC50 (MCF-7 cells) [nM]	Degradation rate (%) of ERα in T-47D cells (ERα [1]; 1nM compound) [%]	Degradation rate (%) of ERα in T-47D cells (ERα [1]; 10nM compound) [%]	Degradation rate (%) of ERα in MCF-7 cells (ERα [2]; 1nM compound) [%]	Degradation rate (%) of ERα in MCF-7 cells (ERα [2]; 10nM compound) [%]	Structure (SMILES)
2510	48	56	20	23	CN(C(=O)CN1CCC2(CC1)COc1c2ccc2c1CN(C1CCC(=O)NC1=O)C2=O)C1CCN(c2ccc([C@@H]3c4ccc(O)cc4CC[C@@H]3c3ccccc3)cc2)CC1 (some centres unmarked) [K37]
59	15	69	30	56	O=C1CCC(N2Cc3cc4c(cc3C2=O)OC2(CC4)CN(CC3CCN(C(=O)C4CCN(c5ccc([C@@H]6c7ccc(O)cc7CC[C@@H]6c6ccccc6)cc5)CC4)CC3)C2)C(=O)N1 (some centres unmarked) [K39]
2350	40	77	14	45	O=C1CCC(N2Cc3cc4c(cc3C2=O)CCC2(CN(CC3CCN(C(=O)C5CCN(c6ccc([C@@H]7c8ccc(O)cc8CC[C@@H]7c7ccccc7)cc6)CC5)CC3)C2)O4)C(=O)N1 (some centres unmarked) [K40]
3070	66	84	23	69	O=C1CCC(N2Cc3c(ccc4c3OCC43CCN(C(=O)CN4CCN(C(=O)C5CCN(c6ccc([C@@H]7c8ccc(O)cc8CC[C@@H]7c7ccccc7)cc6)CC5)CC4)CC3)C2=O)C(=O)N1 (some centres unmarked) [K43]
936	36	66	1	56	CN(C(=O)CN1CCC2(CC1)COc1c2ccc2c1C(=O)N(C1CCC(=O)NC1=O)C2=O)C1CCC2(CC1)CN(c1ccc([C@@H]3c4ccc(O)cc4CC[C@@H]3c3ccccc3)cc1)C2 (some centres unmarked) [K44]
75.2	37	74	21	59	CN(C(=O)CN1CC2(CCc3cc4c(cc3O2)CN(C2CCC(=O)NC2=O)C4=O)C1)C1CCC2(CC1)CN(c1ccc([C@@H]3c4ccc(O)cc4CC[C@@H]3c3ccccc3)cc1)C2 (some centres unmarked) [K45]
85	73	90	54	85	O=C1CCC(N2Cc3c(ccc4c3OCC43CCN(CC(=O)N4CCC(OC5CCN(c6ccc([C@@H]7c8ccc(O)cc8CC[C@@H]7c7ccccc7)cc6)CC5)CC4)CC3)C2=O)C(=O)N1 (some centres unmarked) [K46]
80.2	74	89	57	80	O=C1CCC(N2Cc3c(ccc4c3OCC43CCN(C(=O)CN4CCC(OC5CCN(c6ccc([C@@H]7c8ccc(O)cc8CC[C@@H]7c7ccccc7)cc6)CC5)CC4)CC3)C2=O)C(=O)N1 (some centres unmarked) [K47]
